Reference: the CheMixHub drug solubility set

Assay: xn = mol fraction of the nth substance listed, in the solute-free solvent

O=C(O)C1CSCN1 (stereo not given) + O + CC#N
solubility (g/100 g solution)
Settings	x2 = 0.1	x2 = 0.2	x2 = 0.3	x2 = 0.4	x2 = 0.5	x2 = 0.6	x2 = 0.7	x2 = 0.8	x2 = 0.9
283.15 K	0.0141	0.0241	0.0323	0.084	0.183	0.365	0.573	0.965	1.4
293.15 K	0.0189	0.0303	0.0491	0.106	0.242	0.433	0.729	1.24	1.89
303.15 K	0.0244	0.0416	0.0643	0.129	0.312	0.533	0.901	1.58	2.4
313.15 K	0.0292	0.0548	0.0787	0.159	0.392	0.679	1.17	2.04	3.06
323.15 K	0.0343	0.0734	0.0978	0.192	0.492	0.805	1.52	2.62	3.94

CC(=O)NC(CCC(N)=O)C(=O)O (stereo not given) + O + CCO
solubility (g/100 g solution)
Settings	293.15 K	298.15 K	303.15 K	308.15 K	313.15 K	318.15 K
x2 = 0.2647	0.629	0.869	0.998	1.29	1.49	1.75
x2 = 0.4475	1.45	1.76	2.23	2.56	2.78	3.17
x2 = 0.7641	3.01	3.62	4.93	6.04	7.27	8.61
x2 = 0.8293	2.93	3.69	4.49	5.32	6.47	7.52
x2 = 0.9284	3.11	3.48	4.31	5.04	6.17	7.23

CC(=O)NC(CCC(N)=O)C(=O)O (stereo not given) + O + CO
solubility (g/100 g solution)
Settings	293.15 K	298.15 K	303.15 K	308.15 K	313.15 K	318.15 K
x2 = 0.1998	1.22	1.48	1.76	2.06	2.62	3.27
x2 = 0.4906	2.54	2.73	3.45	4.16	5.01	5.92
x2 = 0.6921	3.1	3.54	4.77	5.99	7.07	8.56
x2 = 0.7712	3.1	3.37	4.17	4.97	6.05	7.41
x2 = 0.8999	3.14	3.34	4.37	5.12	5.77	7.05
